According to PMC11358443, “Polymodal K^+ channel modulation contributes to dual analgesic and anti-inflammatory actions of traditional botanical medicines” (Communications Biology, 2024):

What was measured:
[1] = molecular target: human Kv1.3 (Homo sapiens, UniProt P22001); test: TEVC electrophysiology, Xenopus oocytes expressing Kv1.3; type: cell-based; conditions: for effect of 160 mM [K+]O on Kv1.3 inhibition: versus 4 mM [K+]O
Protocol: (§1) We generated human potassium channel cRNA transcripts with the mMessage mMachine kit (Thermo Fisher Scientific, Waltham, MA, USA) according to manufacturer’s instructions, after vector linearization, from cDNA sub-cloned into expression vectors (pTLNx, pXOOM and pMAX). We injected Xenopus laevis oocytes (Xenoocyte, Dexter, MI, USA) with the channel cRNAs (0.5–10 ng) and incubated the oocytes at 16 °C for 1–4 days prior to electrophysiological recording.
(§2) We performed TEVC at 20–23 °C with an OC-725C amplifier (Warner Instruments, Hamden, CT, USA) and pClamp10 software. Chemicals for recording and oocyte storage solutions were from Sigma-Aldrich (St. Louis, MO). Bath solution contained (in mM): 96 NaCl, 4 KCl, 1 MgCl2, 1 CaCl2, 10 HEPES (pH 7.6). Pipettes were 1–2 MΩ resistance when filled with 3 M KCl. We recorded currents in response to voltage pulses between −120 mV or −80 mV and +40 mV at 10 mV intervals from a holding potential of −80 mV, to yield current–voltage relationships and examine activation kinetics. We recorded and analyzed data using Clampfit (Molecular Devices, Sunnyvale, CA, USA) and Graphpad Prism software (GraphPad, San Diego, CA, USA), stating values as mean ± SEM. We calculated the voltage dependence of activation (V0.5) by measuring tail currents at a voltage pulse of −30 mV (Kv7) or −50 mV (Kv1), then fitted the tail current/voltage relationship with a single Boltzmann function:1 g=(A1−A2)/{1+exp[V1/2−V/Vs]}y+A2 where g is the normalized tail conductance, A1 is the initial value at −∞, A2 is the final value at +∞, V1/2 is the half-maximal voltage of activation and Vs the slope factor. We fitted activation and deactivation kinetics with single exponential functions.
(§3) For wild-type and mutant Kv1.3 channels we calculated conductance–voltage curves from current–voltage relationships recorded in response to voltage pulses between −80 mV to +40 mV in 10 mV intervals from a holding potential of −80 mV. The conductance was calculated by subtracting the driving force (EK):2 Ek=xlnK^+i/K^+o

[2] = molecular target: T1, TREK-1 (KCNK2) (Homo sapiens, UniProt O95069); test: TEVC electrophysiology, Xenopus oocytes expressing TREK-1; type: cell-based
T1 sequence (O95069 1-426): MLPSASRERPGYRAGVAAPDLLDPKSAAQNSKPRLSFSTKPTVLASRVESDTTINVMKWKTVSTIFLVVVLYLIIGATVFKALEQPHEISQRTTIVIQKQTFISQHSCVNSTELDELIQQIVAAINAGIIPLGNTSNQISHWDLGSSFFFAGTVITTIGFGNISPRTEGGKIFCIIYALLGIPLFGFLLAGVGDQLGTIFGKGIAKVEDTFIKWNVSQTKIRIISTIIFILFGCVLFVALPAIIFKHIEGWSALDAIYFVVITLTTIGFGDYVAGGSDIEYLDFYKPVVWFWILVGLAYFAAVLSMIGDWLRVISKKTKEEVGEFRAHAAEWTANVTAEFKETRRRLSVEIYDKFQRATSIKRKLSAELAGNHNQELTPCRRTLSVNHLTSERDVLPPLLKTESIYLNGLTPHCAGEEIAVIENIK
Protocol: as §1, §2

[3] = molecular target: Kv1.3 Mutant 1 (Homo sapiens, UniProt P22001, D423E/G427Q/P424R/S429P/T425E); test: TEVC electrophysiology, oocytes expressing Kv1.3 Mutant 1 (Kv1.2 turret loop residues); type: cell-based
From the text: (§4) To test whether the predicted different binding poses of tannic acid to Kv1.2 and Kv1.3 could explain the contrasting functional effects on these two channels, we made three mutant forms of Kv1.3, introducing Kv1.2 residues into the Kv1.3 turret loop (Mutant 1), pore helix (Mutant 2) and selectivity filter-S6 linker (Mutant 3) (Fig. 9A, B). Mutant 2 was nonfunctional (Fig. 9C); the single residue in this mutant was inaccessible to tannic acid as it was deep inside the pore and was not predicted therefore to interact with tannic acid (Fig. 8).
as §1, §2, §3

[4] = molecular target: Kv1.3 Mutant 3 (Homo sapiens, UniProt P22001, H451V/V453T); test: TEVC electrophysiology, oocytes expressing Kv1.3 Mutant 3 (Kv1.2 selectivity filter-S6 linker residues); type: cell-based
From the text: as §4, §1, §2, §3

[5] = molecular target: Kv7.5 (Homo sapiens, UniProt Q9NR82); design: method as in PMID 35997997; conditions: 100 µM; at −80 mV; cited from earlier work
Sequence of Kv7.5 (Q9NR82 whole entry): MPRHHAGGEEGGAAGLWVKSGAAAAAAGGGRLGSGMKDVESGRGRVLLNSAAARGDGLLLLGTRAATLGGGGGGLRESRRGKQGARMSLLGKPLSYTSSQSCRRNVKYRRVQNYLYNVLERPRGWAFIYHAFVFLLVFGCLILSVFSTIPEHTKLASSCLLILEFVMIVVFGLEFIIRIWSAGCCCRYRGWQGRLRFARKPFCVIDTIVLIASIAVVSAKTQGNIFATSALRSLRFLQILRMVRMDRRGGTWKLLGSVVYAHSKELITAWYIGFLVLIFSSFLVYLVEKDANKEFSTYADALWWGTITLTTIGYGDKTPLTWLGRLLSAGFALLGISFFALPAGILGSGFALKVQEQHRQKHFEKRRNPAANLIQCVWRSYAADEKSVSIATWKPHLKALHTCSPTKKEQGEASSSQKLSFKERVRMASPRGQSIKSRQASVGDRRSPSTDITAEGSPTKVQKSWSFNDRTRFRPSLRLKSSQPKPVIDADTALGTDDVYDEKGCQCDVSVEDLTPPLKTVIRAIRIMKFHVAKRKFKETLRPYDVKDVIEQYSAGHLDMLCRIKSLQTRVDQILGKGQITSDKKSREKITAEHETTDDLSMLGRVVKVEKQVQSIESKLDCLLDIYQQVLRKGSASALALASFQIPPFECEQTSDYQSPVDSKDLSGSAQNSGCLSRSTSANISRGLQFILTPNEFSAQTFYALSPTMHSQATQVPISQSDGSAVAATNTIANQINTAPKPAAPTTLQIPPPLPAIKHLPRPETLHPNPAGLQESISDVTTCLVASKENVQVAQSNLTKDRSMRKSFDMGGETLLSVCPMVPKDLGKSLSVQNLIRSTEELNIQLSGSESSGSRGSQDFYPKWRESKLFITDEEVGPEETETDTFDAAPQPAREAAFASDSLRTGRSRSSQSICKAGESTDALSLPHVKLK

Sequence of human Kv1.3 (P22001 whole entry): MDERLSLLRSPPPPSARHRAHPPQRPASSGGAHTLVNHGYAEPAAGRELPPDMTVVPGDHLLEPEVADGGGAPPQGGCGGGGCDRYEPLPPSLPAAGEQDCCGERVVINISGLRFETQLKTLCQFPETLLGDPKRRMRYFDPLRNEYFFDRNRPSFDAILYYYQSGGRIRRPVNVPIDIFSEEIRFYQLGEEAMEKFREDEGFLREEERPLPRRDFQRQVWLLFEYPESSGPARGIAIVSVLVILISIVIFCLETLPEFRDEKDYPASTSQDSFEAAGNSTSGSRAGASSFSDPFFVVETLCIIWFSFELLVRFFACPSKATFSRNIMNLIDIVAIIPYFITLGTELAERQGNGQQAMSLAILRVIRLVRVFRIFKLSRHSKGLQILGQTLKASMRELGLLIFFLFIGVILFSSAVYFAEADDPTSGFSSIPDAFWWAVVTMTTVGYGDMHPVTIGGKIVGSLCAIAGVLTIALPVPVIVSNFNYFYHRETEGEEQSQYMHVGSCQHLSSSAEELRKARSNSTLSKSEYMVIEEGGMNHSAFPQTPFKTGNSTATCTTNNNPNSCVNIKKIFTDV
Sequence of Kv1.3 Mutant 3 (P22001 whole entry H451V/V453T): as the sequence (P22001 whole entry) above, with H451V, V453T counted along it
Sequence of Kv1.3 Mutant 1 (P22001 whole entry D423E/P424R/T425E/G427Q/S429P): as the sequence (P22001 whole entry) above, with D423E, P424R, T425E, G427Q, S429P counted along it

## tannic acid
[1]; 0.1 µM tannic acid, control 1.99 ± 0.28
  Current at 0 (mV): 2.39 ± 0.41
[1]; 0.1 µM tannic acid, control 4.86 ± 0.31
  Slope: 4.70 ± 0.45 mV
[1]; 0.1 µM tannic acid, control -27.75 ± 1.03
  V0.5 Normalized tail current: -27.80 ± 2.36 mV
[1]; 1 µM tannic acid
  Current at 0 (mV): 2.23 ± 0.35
  Slope: 4.73 ± 0.52 mV
  V0.5 Normalized tail current: -28.17 ± 3.08 mV
[1]; 3 µM tannic acid
  Current at 0 (mV): 1.96 ± 0.31
  Slope: 5.21 ± 0.43 mV
  V0.5 Normalized tail current: -28.73 ± 3.31 mV
[1]; 10 µM tannic acid
  Current at 0 (mV): 1.09 ± 0.25
  Slope: 7.44 ± 0.95 mV
  V0.5 Normalized tail current: -25.49 ± 4.06 mV
[1]; 30 µM tannic acid
  Current at 0 (mV): 0.72 ± 0.27
  Slope: 10.91 ± 2.27 mV
  V0.5 Normalized tail current: -19.06 ± 4.68 mV
  effect of 160 mM [K+]O on Kv1.3 inhibition: abolished inhibition
[1]; 30 µM tannic acid, 2 s depolarizing pulses every 60 s (6 pulses)
  time to steady-state block: 300 ms
[1]; 30 µM tannic acid, 200-ms depolarizing pulses every 60 s (13 pulses)
  time to steady-state block: 700 ms
[1]; 100 µM tannic acid
  Current at 0 (mV): 0.32 ± 0.08
  Slope: 15.18 ± 2.02 mV
  V0.5 Normalized tail current: -9.91 ± 3.45 mV
  effect of 160 mM [K+]O on Kv1.3 inhibition: significantly reduced the efficacy
[1]; prepulse current, read-out: IC50 for Kv1.3 inhibition in oocytes
  IC50: 12 ± 1.3 µM
[1]; unclamped oocytes
  concentrations that depolarized the EM of oocytes expressing Kv1.3: above 10 µM
[2]; 10 µM tannic acid, control 0.23 ± 0.03
  Current at 0 (mV): 0.44 ± 0.08
[2]; 50 µM tannic acid
  Current at 0 (mV): 0.89 ± 0.11
[2]; 100 µM tannic acid
  Current at 0 (mV): 1.37 ± 0.14
[2]; 250 µM tannic acid
  Current at 0 (mV): 1.86 ± 0.19
[2]; 500 µM tannic acid
  Current at 0 (mV): 2.22 ± 0.24
[2]; at 500 µM, 0 mV
  increase in KCNK2 current: > 10 fold
[2]; current fold increase at 0 mV, read-out: EC50 for KCNK2 (TREK-1) activation
  EC50: 143 ± 4 µM
[3]; 0.1 µM tannic acid, control 3.97 ± 0.40
  Slope: 5.16 ± 0.56 mV
[3]; 0.1 µM tannic acid, control 4.66 ± 1.27
  Current at 0 (mV): 5.24 ± 0.91
[3]; 0.1 µM tannic acid, control -14.75 ± 3.06
  V0.5 Normalized tail current: -20.05 ± 2.13 mV
[3]; 1 µM tannic acid
  Current at 0 (mV): 5.37 ± 0.63
  Slope: 4.97 ± 0.53 mV
  V0.5 Normalized tail current: -24.05 ± 2.18 mV
[3]; 3 µM tannic acid
  Current at 0 (mV): 4.93 ± 0.57
  Slope: 5.05 ± 0.28 mV
  V0.5 Normalized tail current: -27.01 ± 1.83 mV
[3]; 10 µM tannic acid
  Current at 0 (mV): 4.01 ± 0.41
  Slope: 5.33 ± 0.20 mV
  V0.5 Normalized tail current: -27.63 ± 1.98 mV
[3]; 30 µM tannic acid
  Current at 0 (mV): 2.18 ± 0.24
  Slope: 5.94 ± 0.30 mV
  V0.5 Normalized tail current: -24.82 ± 2.70 mV
[3]; 100 µM tannic acid
  Current at 0 (mV): 1.15 ± 0.14
  Slope: 6.41 ± 0.42 mV
  V0.5 Normalized tail current: -19.79 ± 4.83 mV
[3]; inhibition dose response
  reduction of tannic acid sensitivity versus wild-type Kv1.3: threefold
[4]; 0.1 µM tannic acid, control 2.50 ± 0.70
  Slope: 4.01 ± 0.35 mV
[4]; 0.1 µM tannic acid, control 3.39 ± 0.48
  Current at 0 (mV): 4.20 ± 0.53
[4]; 0.1 µM tannic acid, control -31.00 ± 0.53
  V0.5 Normalized tail current: -30.20 ± 0.78 mV
[4]; 1 µM tannic acid
  Current at 0 (mV): 4.44 ± 0.64
  Slope: 3.67 ± 0.41 mV
  V0.5 Normalized tail current: -30.51 ± 0.97 mV
[4]; 3 µM tannic acid
  Current at 0 (mV): 4.25 ± 0.64
  Slope: 4.85 ± 0.24 mV
  V0.5 Normalized tail current: -30.85 ± 1.34 mV
[4]; 10 µM tannic acid
  Current at 0 (mV): 2.28 ± 0.38
  Slope: 6.40 ± 0.62 mV
  V0.5 Normalized tail current: -29.05 ± 1.94 mV
[4]; 30 µM tannic acid
  Current at 0 (mV): 0.88 ± 0.13
  Slope: 14.11 ± 1.75 mV
  V0.5 Normalized tail current: -16.81 ± 5.40 mV
[4]; 100 µM tannic acid
  Current at 0 (mV): 0.50 ± 0.07
[4]; inhibition dose response
  change of tannic acid IC50 versus wild-type Kv1.3: did not alter
[5]
  constitutive activation for Kv7.5: 50%
